Patent US10519098B2, “Aromatic derivatives as anti-malarial” (Council of Scientific & Industrial Research, priority 2014, dated 2019)
Like-named read-outs stand apart in the source and are kept apart here.

Assays:
[1] = test system: chloroquine resistant P. yoelii (N-67); assay: In vivo evaluation in P. yoelii (N-67) Swiss mice model; details: positive control, 5 mg/kg ×4 intramuscular; one value per mouse
Protocol: The molecules were tested at 100 mg/kg dose through intraperitoneal route. The mice received infective inoculum containing 1×10^5 parasites on day 0 and then received four doses of test compound on day 0-3 once daily. Five infected mice were used for each molecule and five infected mice were kept as untreated control. Arteether (5 mg/kg, ×4, intramuscular) was used as positive control. Thin blood smear from tail blood of each mouse was prepared on day 4. The blood smears were fixed in methanol, stained with Giemsa's stain and examined under the light microscope (100×oil immersion). At least 10-15 fields per smear were scanned to obtain percent parasitaemia in treated as well as untreated mice. If significant suppression in percent parasitaemia is observed on day 4, the monitoring continues up to day 28.

[2] = test system: Chloroquine-sensitive (3D7) strain of P. falciparum; assay: Malaria SYBR Green I-based fluorescence (MSF) assay, 3D7 strain; format: cell-based; details: Plasmodium falciparum
Protocol: (§1) The stock (5 mg/mL or 10 mM) solutions of extracts were prepared in DMSO and required dilutions were made in culture medium.
(§2) Two-fold serial dilutions of test samples were made in 96 well plates and incubated with 1.0% parasitized cell suspension containing 0.8% parasitaemia (Asynchronous culture with more than 80% ring stages). The plates were incubated at 37° C. in CO2 incubator in an atmosphere of 5% CO2 and air mixture. 72 hours later 100 μL of lysis buffer containing 2× concentration of SYBR Green-I (Invitrogen) was added to each well and incubated for one hour at 37° C. The plates were examined at 485±20 nm of excitation and 530±20 nm of emission for relative fluorescence units (RFUs) per well using the fluorescence plate reader (FLX800, BIOTEK). IC50 values were obtained by Logit regression analysis of dose response curves (Singh et al. 2011).

[3] = test system: Chloroquine-resistant (K1) strain of P. falciparum; assay: Malaria SYBR Green I-based fluorescence (MSF) assay, K1 strain; format: cell-based; details: Plasmodium falciparum
Protocol: as §1, §2

in vitro = details: monkey
Protocol: (§3) The cells were incubated with test sample dilutions for 72 h and MTT was used as reagent for detection of cytotoxicity. Podophyllotoxin (SIGMA) was used as the standard reference drug.

[4] = test system: Vero cell line (C1008; Monkey kidney fibroblast); assay: in vitro; details: 72 h
Protocol: as §3

[5] = 3D7, range given for listed compounds, read-out: IC50 values against 3D7 culture
[6] = P. falciparum 3D7, 72 hours incubation, read-out: IC50 against 3D7
[7] = K1, range given for listed compounds, read-out: IC50 values against K1 culture
[8] = P. falciparum K1, 72 hours incubation, read-out: IC50 against K1

With `CCO[C@H]1O[C@@H]2O[C@@]3(C)CC[C@H]4[C@H](C)CC[C@@H]([C@H]1C)[C@@]24OO3` [Arteether, reference compound] the “% parasitaemia on day 4 in 5 individual mice” value [1] was 0.0%.

For `COc1cc([C@@H](CNC(=O)/C=C/c2ccccc2)OC(=O)/C=C/c2ccccc2)cc(OC)c1OC` [Compound 5, (S)-2-cinnamamido-1-(3,4,5-trimethoxyphenyl)ethyl cinnamate], the IC50 [2, 5] was 2 to 7 µM, the IC50 [2, 6] was 6.69 µM and the IC50 [3, 7] was 1.5 to 4 µM. For the same compound, the IC50 [3, 8] was 3.64 µM, the CC50 at 72 h (in vitro) was 66.7 µM and the melting point was 126 to 128 °C.

`COc1ccccc1[C@@H](CNC(=O)/C=C/c1ccccc1)OC(=O)/C=C/c1ccccc1` [Compound 9, (S)-2-cinnamamido-1-(2-methoxyphenyl)ethyl cinnamate] showed an IC50 [2, 6] greater than 5 µM, an IC50 [3, 8] greater than 5 µM and a CC50 at 72 h (in vitro) of 77.8 µM. It also gave a melting point of 112 to 114 °C.

`COc1cccc([C@H](CNC(=O)/C=C/c2ccccc2)OC(=O)/C=C/c2ccccc2)c1OC` [Compound 22, (R)-2-cinnamamido-1-(2,3-dimethoxyphenyl)ethyl cinnamate] showed an IC50 [2, 6] greater than 5 µM, an IC50 [3, 8] greater than 5 µM and a CC50 at 72 h (in vitro) of 194 µM. The melting point was 105 to 107 °C.

`O=C(/C=C/c1ccccc1)NC[C@@H](OC(=O)/C=C/c1ccccc1)c1ccccc1` [Compound 25, (S)-2-cinnamamido-1-phenylethyl cinnamate] gave an IC50 [2, 6] of 3.85 µM, an IC50 [3, 8] greater than 10 µM and a CC50 at 72 h (in vitro) of 31.7 µM. For the same compound, the melting point was 181 to 183 °C.

Work on `O=C(/C=C/c1ccccc1)NC[C@H](OC(=O)/C=C/c1ccccc1)c1ccccc1` [Compound 26, (R)-2-cinnamamido-1-phenylethyl cinnamate] yielded an IC50 [2, 6] of 4.72 µM, an IC50 [3, 8] greater than 10 µM and a CC50 at 72 h (in vitro) of 63.9 µM. The melting point was 183 to 185 °C.

`Cc1ccc([C@@H](CNC(=O)/C=C/c2ccccc2)OC(=O)/C=C/c2ccccc2)cc1` [Compound 29, (S)-2-cinnamamido-1-(p-tolyl) ethyl cinnamate] gave an IC50 [2, 6] of 6.77 µM, an IC50 [3, 8] greater than 10 µM and a CC50 at 72 h (in vitro) of 141 µM. For the same compound, the melting point was 139 to 140 °C.

`Cc1ccc([C@H](CNC(=O)/C=C/c2ccccc2)OC(=O)/C=C/c2ccccc2)cc1` [Compound 30, (R)-2-cinnamamido-1-(p-tolyl) ethyl cinnamate] showed an IC50 [2, 6] of 6.97 µM, an IC50 [3, 8] greater than 10 µM and a CC50 at 72 h (in vitro) of 49.4 µM. The melting point was 139 to 141 °C.

For `Cc1ccc([C@@H](COC(=O)/C=C/c2ccccc2)OC(=O)/C=C/c2ccccc2)cc1` [Compound 31, (S)-1-(p-tolyl) ethane-1,2-diyl (2E,2′E)-bis(3-phenylacrylate)], the IC50 [2, 6] was greater than 5 µM, the IC50 [3, 8] was greater than 5 µM and the CC50 at 72 h (in vitro) was greater than 200 µM. The melting point was 103 to 105 °C.

For `O=C(/C=C/c1ccccc1)NC[C@@H](OC(=O)/C=C/c1ccccc1)c1ccc2c(c1)OCO2` [Compound 33, (S)-1-(benzo[d][1,3]dioxol-5-yl)-2-cinnamamidoethyl cinnamate], the IC50 [2, 6] was greater than 5 µM, the IC50 [3, 8] was greater than 5 µM and the CC50 at 72 h (in vitro) was 190 µM. The melting point was 186 to 190 °C.

Work on `O=C(/C=C/c1ccccc1)OC[C@@H](OC(=O)/C=C/c1ccccc1)c1ccc2c(c1)OCO2` [Compound 35, (S)-1-(benzo[d][1,3]dioxol-5-yl)ethane-1,2-diyl(2E,2′E)-bis(3-phenyl acrylate)] yielded an IC50 [2, 6] greater than 5 µM, a CC50 at 72 h (in vitro) of 31.8 µM and a melting point of 106 to 107 °C.

`O=C(/C=C/c1ccccc1)OC[C@H](OC(=O)/C=C/c1ccccc1)c1ccc2c(c1)OCO2` [Compound 36, (R)-1-(benzo[d][1,3]dioxol-5-yl)ethane-1,2-diyl(2E,2′E)-bis(3-phenyl acrylate)] gave an IC50 [2, 6] greater than 5 µM, a CC50 at 72 h (in vitro) of 56.6 µM and a melting point of 108 to 110 °C.

`COc1ccc([C@@H](CNC(=O)c2ccccc2)OC(=O)c2ccccc2)cc1OC` [Compound 39, (S)-2-benzamido-1-(3,4-dimethoxyphenyl) ethyl benzoate] gave an IC50 [2, 6] of 6.67 µM, an IC50 [3, 8] greater than 10 µM and a CC50 at 72 h (in vitro) of 8.16 µM. The melting point was 129 to 131 °C.

For `COc1ccc([C@H](CNC(=O)c2ccccc2)OC(=O)c2ccccc2)cc1OC` [Compound 40, (R)-2-benzamido-1-(3,4-dimethoxyphenyl) ethyl benzoate], the IC50 [2, 6] was 3.66 µM, the IC50 [3, 8] was greater than 10 µM and the CC50 at 72 h (in vitro) was 104 µM. For the same compound, the melting point was 128 to 130 °C.

Compound `COc1ccc([C@@H](CNC(=O)CCc2ccccc2)OC(=O)CCc2ccccc2)cc1OC` [Compound 43, (S)-1-(3,4-dimethoxyphenyl)-2-(3-phenylpropanamido)ethyl 3-phenyl propanoate] has an IC50 [2, 6] of 2.86 µM, an IC50 [3, 8] greater than 10 µM and a CC50 at 72 h (in vitro) of 39.3 µM. For the same compound, the melting point was 82 to 84 °C.

Compound `COc1ccc([C@H](CNC(=O)CCc2ccccc2)OC(=O)CCc2ccccc2)cc1OC` [Compound 44, (R)-1-(3,4-dimethoxyphenyl)-2-(3-phenylpropanamido)ethyl 3-phenyl propanoate] has an IC50 [2, 6] of 5.86 µM, an IC50 [3, 8] greater than 10 µM and a CC50 at 72 h (in vitro) of 73.2 µM. The melting point was 77 to 78 °C.

For `COc1ccc([C@@H](CNC(=O)/C=C/c2ccc(O[Si](C)(C)C(C)(C)C)cc2)OC(=O)/C=C/c2ccc(O[Si](C)(C)C(C)(C)C)cc2)cc1OC` [Compound 48, (S)-2-((E)-3-(4-((tert-butyldimethylsilyl)oxy)phenyl)acrylamido)-1-(3,4-dimethoxyphenyl)ethyl (E)-3-(4-((tert-butyldimethylsilyl)oxy)phenyl)acrylate], the IC50 [2, 6] was 7.92 µM, the IC50 [3, 8] was 3.37 µM and the CC50 at 72 h (in vitro) was 40.8 µM. The melting point was 63 to 65 °C.

Compound `COc1ccc([C@@H](CNC(=O)/C=C/c2ccccc2)OC(=O)CCc2ccccc2)cc1OC` [Compound 49, (S)-2-cinnamamido-1-(3,4-dimethoxyphenyl)ethyl 3-phenylpropanoate] has an IC50 [2, 6] greater than 10 µM, an IC50 [3, 8] greater than 10 µM and a CC50 [4] of 36.9 µM. It also gave a melting point of 101 to 103 °C.

`COc1ccc([C@@H](CNC(=O)CCc2ccccc2)OC(=O)/C=C/c2ccccc2)cc1OC` [Compound 50, (S)-1-(3,4-dimethoxyphenyl)-2-(3-phenylpropanamido)ethylcinnamate] showed an IC50 [2, 6] greater than 10 µM, an IC50 [3, 8] greater than 10 µM and a CC50 [4] of 44.3 µM. It also gave a melting point of 112 to 114 °C.

In the case of `CCCC(=O)NC[C@@H](OC(=O)/C=C/c1ccccc1)c1ccc(OC)c(OC)c1` [Compound 51, (S)-2-butyramido-1-(3,4-dimethoxyphenyl)ethyl cinnamate], the IC50 [2, 6] is reported as greater than 10 µM, the IC50 [3, 8] is reported as greater than 10 µM and the CC50 [4] is reported as 42.4 µM. For the same compound, the melting point was 93 to 94 °C.

Work on `CCCC(=O)O[C@H](CNC(=O)/C=C/c1ccccc1)c1ccc(OC)c(OC)c1` [Compound 52, (S)-2-cinnamamido-1-(3,4-dimethoxyphenyl)ethyl butyrate] yielded an IC50 [2, 6] greater than 10 µM, an IC50 [3, 8] greater than 10 µM and a CC50 [4] of 29.9 µM.

For `O=C(/C=C/c1ccccc1)OC[C@@H](OC(=O)/C=C/c1ccccc1)c1ccc2ccccc2c1` [Compound 53, (S)-1-(naphthalen-2-yl)ethane-1,2-diyl (2E,2′E)-bis(3-phenylacrylate)], the IC50 [2, 6] was greater than 10 µM, the IC50 [3, 8] was greater than 10 µM and the CC50 [4] was greater than 200 µM. It also gave a melting point of 120 to 121 °C.

With `O=C(/C=C/c1ccccc1)OC[C@H](OC(=O)/C=C/c1ccccc1)c1ccc2ccccc2c1` [Compound 54, (R)-1-(naphthalen-2-yl)ethane-1,2-diyl (2E,2′E)-bis (3-phenylacrylate)] the IC50 [2, 6] was greater than 10 µM, the IC50 [3, 8] was 2.15 µM and the CC50 [4] was 181 µM. The melting point was 123 to 124 °C.

For `COc1ccc([C@@H](COC(=O)/C=C/c2ccccc2)NC(=O)/C=C/c2ccccc2)cc1OC` [Compound 55, (S)-2-cinnamamido-2-(3,4-dimethoxyphenyl)ethyl cinnamate], the IC50 [2, 6] was greater than 10 µM, the IC50 [3, 8] was greater than 10 µM and the CC50 at 72 h (in vitro) was 55.6 µM. For the same compound, the melting point was 117 to 120 °C.

In the case of `COc1cc(/C=C/C(=O)OC[C@@H](OC(=O)/C=C/c2cc(OC)c(OC)c(OC)c2)c2cc(OC)c(OC)c(OC)c2)cc(OC)c1OC` [Compound 57, (S)-1-(3,4,5-trimethoxyphenyl)ethane-1,2-diyl(2E,2′E)-bis(3-(3,4,5-trimethoxyphenyl)acrylate)], the IC50 [2, 5] is reported as 2 to 7 µM, the IC50 [2, 6] is reported as 6.29 µM and the IC50 [3, 7] is reported as 1.5 to 4 µM. It also gave an IC50 [3, 8] of 2.23 µM, a CC50 at 72 h (in vitro) of 47.4 µM and a melting point of 61 to 62 °C.
